Source: paper PMC2570929 (Emerging Infectious Diseases, 2008)
Entries after “also recorded” stand apart in the source; their conditions may differ. Where two headings read alike, the source gives them in different places.

Key:
in vitro = settings: human
[1] = tested on: poliovirus Sabin strain 1 (PV1); experiment: microbe, parasite or virus in culture; format: cell-based; settings: for EC50: Enterovirus C, HeLa, 72 h, read-out: EC50 PV1
[2] = tested on: poliovirus Sabin strain 3 (PV3); experiment: microbe, parasite or virus in culture; format: cell-based; settings: Enterovirus C, HeLa, 72 h, read-out: EC50 PV3
[3] = tested on: poliovirus Sabin strain 2 (PV2); experiment: microbe, parasite or virus in culture; format: cell-based; settings: Enterovirus C, HeLa, 72 h, read-out: EC50 PV2
[4] = tested on: poliovirus Sabin strains 1, 2, and 3; experiment: microbe, parasite or virus in culture; format: cell-based; settings: for EC50: Enterovirus C, read-out: EC50
[5] = in vivo; cited from earlier work
[6] = cited from earlier work
poliovirus 1 Sabin = format: cell-based
PV = settings: in vivo; cited from earlier work

Compound	CC50 (in vitro) [µM]	EC50 [1] [µM]	EC50 [2] [µM]	EC50 [3] [µM]	EC50 [4] [µM]	further results
C[C@@]1(O)[C@H](O)[C@@H](CO)O[C@H]1n1cnc2c(N)ncnc21 [2'-C-methyladenosine, 2′-C-methyladenosine]	84	5.5	5.4 ± 0.4	5.6 ± 0.1	~5	
C[C@@]1(O)[C@H](O)[C@@H](CO)O[C@H]1n1ccc(N)nc1=O [2'-C-methylcytidine, 2′-C-methylcytidine]	> 100	15 ± 18	3.9 ± 2.3	29 ± 27	3.9 to 29	
[N-]=[N+]=N[C@]1(CO)O[C@@H](n2ccc(N)nc2=O)[C@H](O)[C@@H]1O [4’-azidocytidine, 4′-azidocytidine]	> 100	> 100	> 100	> 100		anti-PV activity [4]: inactive; also recorded: devoid of anti-PV activity
C#CCC(C(=O)NC(C=CC(=O)OCC)CC1CCNC1=O)n1cccc(NC(=O)c2cc(C)on2)c1=O (stereo not shown) [Compound 1]	> 100	0.26 ± 0.24			< 1	oral bioavailability [5]: excellent; cytotoxicity (HeLa cells (ATCC CCL-2)): without any signs of cytotoxicity
CC(C)S(=O)(=O)n1c(N)nc2ccc(/C(=N/O)c3ccccc3)cc21 [Enviroxime]	58 ± 6	0.2 ± 0.25	0.035 ± 0.029	0.056 ± 0.02	0.035 to 0.2	activity in vivo [6]: weak to moderate; toxicity in vivo [6]: toxicity
OC(c1ccccc1)c1nc2ccccc2[nH]1 (stereo not drawn) [HBB, 2-(α-hydroxybenzyl)-benzimidazole]	> 400	300 ± 68	295 ± 88	225 ± 128	200 to 300	
N#Cc1cc([N+](=O)[O-])ccc1Oc1ccc(Cl)c(Cl)c1 [MDL-860, 2-(3,4-dichlorophenoxy)-5-nitrobenzonitrile]	> 100	6 ± 1.6	2.2 ± 1.5	3.6 ± 2.2		
N=c1ccn(Cc2nc3ccccc3n2-c2ccc(F)cc2)cc1 [MRL-1237]	> 100	5.3 ± 0.3	3.8 ± 2.5	4.6 ± 1.4		
CCOC(=O)c1ccc(OCCC2CCN(c3ccc(C)nn3)CC2)cc1 [Pirodavir (R77975)]	> 100	10 ± 1	0.56 ± 0.03	1.7 ± 0.1		metabolic stability after oral administration [5]: metabolic instability; EC50 ([4]; HeLa): < 2 µM
CCOC(=O)c1ccc(OCCCC2CCN(c3ccc(C)nn3)CC2)cc1 [Pirodavir analog (R78206)]	27 ± 34	0.76 ± 0.18	0.11 ± 0.1	0.22 ± 0.19		Inhibitory activity against PV1 [1]: exhibited inhibitory activity; EC50 ([4]; HeLa): < 2 µM
Cc1cc(CCCOc2c(C)cc(-c3noc(C(F)(F)F)n3)cc2C)on1 [Pleconaril]	66 ± 6	> 100	0.22 ± 0.15	1.1 ± 0.6		reduction of infectious virus yield (poliovirus 1 Sabin): not able to reduce infectious virus yield; Inhibitory activity against PV1 [1]: inactive; benefit of treatment in a persistently infected person (PV): no benefit; virus excretion in a child persistently infected with PV (PV): effective in stopping virus excretion; EC50 ([4]; HeLa): < 2 µM
NC(=O)c1ncn([C@@H]2O[C@H](CO)[C@@H](O)[C@H]2O)n1 [Ribavirin]	> 100	57 ± 13	55 ± 7	64 ± 4	50 to 60	
CCOC(=O)/C=C/[C@H](C[C@@H]1CCNC1=O)NC(=O)[C@@H](CC(=O)[C@@H](NC(=O)c1cc(C)on1)C(C)C)Cc1ccc(F)cc1 [Rupintrivir]	> 100	0.022 ± 0.028	0.0052 ± 0.0046	0.041 ± 0.024		decrease of infectious virus production (poliovirus 1 Sabin): 6 log10; reduction of virus progeny formation (poliovirus 1 Sabin): 10–1,000 fold; cytotoxicity (HeLa cells (ATCC CCL-2)): without any signs of cytotoxicity
